The values that follow come from patent publication US20250345394A1, “HAIR-GROWING OR HAIR-FOSTERING AGENT BASED ON KERATIN FINE PARTICLES” (MYQTECH INC., priority 2022, published 2025).

The test system of the test is C57BL/6 mice. The experiment in a line: Hair growing effect on mice (topical application to shaved dorsal region). In kind it is in vivo. The settings on record: 1% topically every day, male C57BL/6 mice. As to the method:
In the present example, the hair growing effect of keratin microparticles on mice was investigated. The experiment was approved by Institutional Animal Care and Use Committee, University of Tsukuba (No. 17-060), and the procedure was carried out in conformity with the “Guiding principles for the care and use of animals in the field of physiological sciences” approved by the board of Physiological Society of Japan.
Six-week-old male C57BL/6 mice (Charles River Japan Inc.) were kept individually in a cage. acclimated for 1 week, and then randomly assigned to experiment groups (each group n=5) of a 1% Minoxidil treated group, a 1% keratin treated group, a 1% keratin microparticles treated group, and a milli-Q water treated group (control group). The mice were anesthetized with Isoflurane (Wako Pure Chemical Industries, Ltd.) and then telogen hair at the dorsal region of the mice was shaved using a hair clipper to induce the growth phase. […]
In the end of treatment period, the mice were slaughtered by cervical dislocation. […] Using ImageJ processing program (National Institutes of Health, Bethesda, USA), the hair regrowth at the treated area was measured.

The structures appear in SMILES notation.

Regarding `Nc1cc(N2CCCCC2)nc(N)[n+]1[O-]` [Minoxidil], the “time of hair regrowth phenotype” value is listed as ~10 day after application.
